The source of these data is US12495798B2, “Nicotinamide compound and herbicidal composition comprising compound” (KOREA RESEARCH INSTITUTE OF CHEMICAL TECHNOLOGY, priority 2019, dated 2025).

What all share (format): in vivo
One assay relates to bindweed. In words: Herbicidal activity test against upland field weeds (foliar treatment test). More on the design: key to Foliar treatment herbicidal activity, Bindweed: 0 (no control); 100 (complete control). The conditions noted are these: scale 0-100; for Foliar treatment herbicidal activity, Bindweed / pest or weed control at 50 g/ha: 50 g ai/ha. A digest of the protocol:
(§1)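 Visual 0–100 control ratings relative to untreated plants, taken 14 (or 21) days after spraying foliage at 50 or 75 g a.i./ha. Spray solution: 50% acetone with 0.1% Tween-20; plants kept in greenhouse at 30±5 °C, 14 h light/10 h dark.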

The next assay deals with indian jointvetch. The assay is described as above. More on the design: key to Foliar treatment herbicidal activity, Indian jointvetch: 0 (no control); 100 (complete control). The conditions noted are these: scale 0-100; for Foliar treatment herbicidal activity, Indian jointvetch / pest or weed control at 50 g/ha: 50 g ai/ha. The method in brief: as §1
The next assay has as its system black nightshade. As to the kind of experiment: Herbicidal activity test against upland field weeds (soil treatment test). The arrangement: key to Soil treatment herbicidal activity, black nightshade: 0 (no control); 100 (complete control). The conditions noted are these: scale 0 (no control) to 100 (complete control); for pest or weed control at 50 g/ha: Solanum nigrum. The method in brief: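 Weed control scored visually on a 0 (none) to 100 (complete) scale versus untreated pots at 14 or 21 days in greenhouse (30±5 °C, 14 h light). Test compounds, 50 or 75 g a.i./ha in 50% acetone/0.1% Tween-20, hand-sprayed onto soil one day post-sowing.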

One may read the pest or weed control as how far the test organism was held down.

Take `Cn1cnc(COCc2nc(C(F)F)ccc2C(=O)Nc2nnnn2C)n1` [Compound No. 2-85]: the “Foliar treatment herbicidal activity, Bindweed” value with bindweed stood at 99. The “Foliar treatment herbicidal activity, Indian jointvetch” value with indian jointvetch was determined as 97. For the same compound, the “Soil treatment herbicidal activity, black nightshade” value (“Soil treatment herbicidal activity” for short) in the assay with black nightshade (50 g ai/ha) came out at 93.

Regarding `CN(Cc1nnn(C)n1)c1nc(C(F)(F)F)ccc1C(=O)Nc1nnnn1C` [Compound No. 2-26, 2-(methyl((2-methyl-2H-tetrazol-5-yl)methyl)amino)-N-(1-methyl-1H-tetrazol-5-yl)-6-(trifluoromethyl)nicotinamide], the pest or weed control at 75 g/ha with bindweed (75 g ai/ha) is 95%; in the assay on indian jointvetch (75 g ai/ha) it was 90%. Further, the “Soil treatment herbicidal activity” value in the assay with black nightshade (75 g ai/ha) was 100.

For `Cn1nnc(CS(=O)(=O)Cc2nc(C(F)(F)F)ccc2C(=O)Nc2nnnn2C)n1` [Compound No. 2-105, N-(1-methyl-1H-tetrazol-5-yl)-2-((((2-methyl-2H-tetrazol-5-yl)methyl)sulfonyl)methyl)-6-(trifluoromethyl)nicotinamide], the pest or weed control at 50 g/ha with bindweed is 80%; with indian jointvetch it was 95%; in the assay on black nightshade (50 g ai/ha), 60%.

Consider `Cn1nnc(CSCc2nc(C(F)F)ccc2C(=O)Nc2nnnn2C)n1` [Compound No. 2-108, 6-(difluoromethyl)-N-(1-methyl-1H-tetrazol-5-yl)-2-((((2-methyl-2H-tetrazol-5-yl)methyl)thio)methyl)nicotinamide], for which the pest or weed control at 50 g/ha is 90% with bindweed, 80% in the assay on indian jointvetch and 30% in the assay with black nightshade (50 g ai/ha).

`Cn1nnc(CSCc2nc(C(F)(F)F)ccc2C(=O)Nc2nnnn2C)n1` [Compound No. 2-102, N-(1-methyl-1H-tetrazol-5-yl)-2-((((2-methyl-2H-tetrazol-5-yl)methyl)thio)methyl)-6-(trifluoromethyl)nicotinamide]: the “Foliar treatment herbicidal activity, Bindweed” value in the assay on bindweed is listed as 100. Further, in the assay on indian jointvetch, the pest or weed control at 50 g/ha was found to be 98%. The “Soil treatment herbicidal activity” value in the assay with black nightshade (50 g ai/ha) is given as 100.

For `Cn1ncnc1COc1nc(C(F)(F)F)ccc1C(=O)Nc1nnnn1C` [Compound No. 1-45, 2-((1-methyl-1H-1,2,4-triazol-5-yl)methoxy)-N-(1-methyl-1H-tetrazol-5-yl)-6-(trifluoromethyl)nicotinamide], the pest or weed control at 50 g/ha in the assay on bindweed turned out to be 98%; in the assay on indian jointvetch, 70%. For the same compound, the “Soil treatment herbicidal activity” value in the assay on black nightshade (50 g ai/ha) is recorded as 100.

For `COC(=O)OC(C)N(C(=O)c1ccc(C(F)(F)F)nc1COCc1nnn(C)n1)c1nnnn1C` (stereo not drawn) [Compound No. 4-4, methyl(1-(N-(1-methyl-1H-tetrazol-5-yl)-2-(((2-methyl-2H-tetrazol-5-yl)methoxy)methyl)-6-(trifluoromethyl)nicotinamido)ethyl)carbonate], in the assay on bindweed, the “Foliar treatment herbicidal activity, Bindweed” value came to 100. Moreover, the “Foliar treatment herbicidal activity, Indian jointvetch” value with indian jointvetch came out at 100. For the same compound, the “Soil treatment herbicidal activity” value with black nightshade (50 g ai/ha) is reported as 100.

As for `Cn1nnc(COc2nc(C(F)(F)F)ccc2C(=O)Nc2nnnn2C)n1` [Compound No. 2-1, N-(1-methyl-1H-tetrazol-5-yl)-2-((2-methyl-2H-tetrazol-5-yl)methoxy)-6-(trifluoromethyl)nicotinamide], the pest or weed control at 50 g/ha came to 60% in the assay with bindweed, 60% in the assay on indian jointvetch and 90% with black nightshade (50 g ai/ha).

As to `COc1nc(COCc2nc(C(F)(F)F)ccc2C(=O)Nc2nnnn2C)nn1C` [Compound No. 2-129, 2-(((5-methoxy-1-methyl-1H-1,2,4-triazol-3-yl)methoxy)methyl)-N-(1-methyl-1H-tetrazol-5-yl)-6-(trifluoromethyl)nicotinamide], the pest or weed control at 50 g/ha with bindweed amounted to 40%; with indian jointvetch, 60%. Also, in the assay on black nightshade (50 g ai/ha), the “Soil treatment herbicidal activity” value was found to be 100.

As for `Cn1nc(COCc2nc(C(F)(F)F)ccc2C(=O)Nc2nnnn2C)nc1Cl` [Compound No. 2-135, 2-(((5-chloro-1-methyl-1H-1,2,4-triazol-3-yl)methoxy)methyl)-N-(1-methyl-1H-tetrazol-5-yl)-6-(trifluoromethyl)nicotinamide], the pest or weed control at 50 g/ha with bindweed stood at 70%; in the assay with indian jointvetch, 95%; with black nightshade (50 g ai/ha), 60%.

For the compound `Cn1nnnc1COCc1nc(C(F)(F)F)ccc1C(=O)Nc1nnnn1C` [Compound No. 1-61, N-(1-methyl-1H-tetrazol-5-yl)-2-(((1-methyl-1H-tetrazol-5-yl)methoxy)methyl)-6-(trifluoromethyl)nicotinamide], the pest or weed control at 50 g/ha with bindweed is 70%; in the assay on black nightshade (50 g ai/ha), 98%. Further, the “Foliar treatment herbicidal activity, Indian jointvetch” value in the assay on indian jointvetch stood at 100.

For `Cn1nnnc1COc1nc(C(F)(F)F)ccc1C(=S)Nc1nnnn1C` [Compound No. 1-43, N-(1-methyl-1H-tetrazol-5-yl)-2-((1-methyl-1H-tetrazol-5-yl)methoxy)-6-(trifluoromethyl)pyridin-3-carbothioamide], the pest or weed control at 50 g/ha was 70% in the assay on bindweed and 30% in the assay with indian jointvetch. In the assay on black nightshade (50 g ai/ha), the “Soil treatment herbicidal activity” value worked out at 0.

`Cn1nnc(CSCc2nc(C(F)(F)F)ccc2C(=O)N(C(=O)c2ccccc2)c2nnnn2C)n1` [Compound No. 2-109, N-benzoyl-N-(1-methyl-1H-tetrazol-5-yl)-2-((((2-methyl-2H-tetrazol-5-yl)methyl)thio)methyl)-6-(trifluoromethyl)nicotinamide]: the pest or weed control at 50 g/ha in the assay on bindweed and in the assay on indian jointvetch was 98% in each case. The “Soil treatment herbicidal activity” value in the assay on black nightshade (50 g ai/ha) was determined as 100.

For `CCOC(=O)OC(C)N(C(=O)c1ccc(C(F)(F)F)nc1COCc1nnn(C)n1)c1nnnn1C` (stereo not drawn) [Compound No. 4-8, ethyl(1-(N-(1-methyl-1H-tetrazol-5-yl)-2-(((2-methyl-2H-tetrazol-5-yl)methoxy)methyl)-6-(trifluoromethyl)nicotinamido)ethyl)carbonate], the “Foliar treatment herbicidal activity, Bindweed” value in the assay with bindweed turned out to be 100. The “Foliar treatment herbicidal activity, Indian jointvetch” value with indian jointvetch turned out to be 100. In addition, in the assay on black nightshade (50 g ai/ha), the “Soil treatment herbicidal activity” value was found to be 100.
